According to patent US20230124862A1, “BISMUTH THIOL COMPOUNDS AND COMPOSITIONS AND METHODS OF TREATING MICROBIAL CO-INFECTIONS” (Microbion Corporation, priority 2020, published 2023):
Converted amounts (≈) assume the structure as drawn. Like-named read-outs stand apart in the source and are kept apart here.

Key:
[1] = Particle size distribution of BisEDT samples vs processing conditions; assay type: physicochemical
fungal pathogens = test: Antifungal activity, NIH/NIAID sponsored study; assay type: cell-based; settings: 100% endpoint
Haemophilus influenzae = test: Broth microdilution MIC, Haemophilus influenzae clinical isolates; assay type: cell-based
Candida krusei = test: Antifungal broth microdilution (Example 13); assay type: cell-based; settings: for MIC2: 50% inhibition; for MIC0: complete inhibition
[2] = particle size distribution of BisEDT samples
[3] = C. krusei ATCC 14243, Susceptible
[4] = C. krusei ATCC 96685, Susceptible
[5] = C. krusei MMX 7125, Susceptible
[6] = C. krusei MMX 7128, Susceptible
[7] = C. krusei MMX 7141, Susceptible
[8] = C. krusei MMX 7155, Susceptible
[9] = C. krusei MMX 7563, Susceptible
[10] = C. krusei MMX 9878, MICA-I, VORI-I

SMILES	D(10) ([1]; crystalline BisEDT samples)	D(50) ([1]; crystalline BisEDT samples)	D(90) ([1]; crystalline BisEDT samples)	D[4, 3] ([1]; crystalline BisEDT samples)	D(10) [1, 2]	D(50) [1, 2]	D(90) [1, 2]	D[4, 3] [1, 2]	other results
C1C[S][Bi]([S]CC[S][Bi]2[S]CC[S]2)[S]1 [Sample 6]	0.34 μm	0.87 μm	1.8 μm	0.98 μm	0.34 μm	0.87 μm	1.8 μm	0.98 μm	–
C1C[S][Bi]([S]CC[S][Bi]2[S]CC[S]2)[S]1 [Sample 14]	0.36 μm	1.0 μm	2.1 μm	1.2 μm	0.36 μm	1.0 μm	2.1 μm	1.2 μm	–
C1C[S][Bi]([S]CC[S][Bi]2[S]CC[S]2)[S]1 [Sample 1]	0.80 μm	2.4 μm	5.9 μm	2.9 μm	0.80 μm	2.4 μm	5.9 μm	2.9 μm	–
C1C[S][Bi]([S]CC[S][Bi]2[S]CC[S]2)[S]1 [Sample 7]	0.39 μm	1.3 μm	1.6 μm	1.4 μm	0.39 μm	1.3 μm	1.6 μm	1.4 μm	–
CC[C@@H]([C@H](C)O)n1ncn(-c2ccc(N3CCN(c4ccc(OC[C@@H]5CO[C@@](Cn6cncn6)(c6ccc(F)cc6F)C5)cc4)CC3)cc2)c1=O [Posaconazole]	–	–	–	–	–	–	–	–	MIC (fungal pathogens; Paecilomyces variotii, read-out: Antifungal activity, MIC 100%, P. variotii CLSI QC): ≤ 0.03 µg/mL; MIC (fungal pathogens; Rhizopus arrhizus, read-out: Antifungal activity, MIC 100%, R. arrhizus RA1): 4 µg/mL (≈ 5.71 µM); MIC (fungal pathogens; Rhizopus arrhizus, read-out: Antifungal activity, MIC 100%, R. arrhizus RA2): 0.06 µg/mL (≈ 0.0856 µM); MIC (fungal pathogens; Rhizopus arrhizus, read-out: Antifungal activity, MIC 100%, R. arrhizus RA3): 0.125 µg/mL (≈ 0.178 µM)
C1C[S][Bi]([S]CC[S][Bi]2[S]CC[S]2)[S]1 [Sample 13]	0.36 μm	0.98 μm	2.1 μm	1.2 μm	0.36 μm	0.98 μm	2.1 μm	1.2 μm	–
C1C[S][Bi]([S]CC[S][Bi]2[S]CC[S]2)[S]1 [Sample 4]	0.44 μm	1.48 μm	3.1 μm	1.7 μm	0.44 μm	1.48 μm	3.1 μm	1.7 μm	–
CO/N=C(\C(=O)N[C@@H]1C(=O)N2C(C(=O)O)=C(COC(N)=O)CS[C@H]12)c1ccco1 [CFA]	–	–	–	–	–	–	–	–	MIC (Haemophilus influenzae; H. influenzae MMX 0797, BLNAR): 4 µg/mL (≈ 9.43 µM); MIC (Haemophilus influenzae; H. influenzae MMX 1224 (ATCC 49247)): 4 µg/mL (≈ 9.43 µM); MIC (Haemophilus influenzae; H. influenzae MMX 1302): 2 µg/mL (≈ 4.71 µM); MIC (Haemophilus influenzae; H. influenzae MMX 1304): 64 µg/mL (≈ 151 µM); MIC (Haemophilus influenzae; H. influenzae MMX 1740): 8 µg/mL (≈ 18.9 µM); MIC (Haemophilus influenzae; H. influenzae MMX 1741): 4 µg/mL (≈ 9.43 µM); MIC (Haemophilus influenzae; H. influenzae MMX 2795, BLNAR): 1 µg/mL (≈ 2.36 µM); MIC (Haemophilus influenzae; H. influenzae MMX 2796, BLNAR): 4 µg/mL (≈ 9.43 µM); MIC (Haemophilus influenzae; H. influenzae MMX 2798, BLNAR): 4 µg/mL (≈ 9.43 µM); MIC (Haemophilus influenzae; H. influenzae MMX 2799, BLNAR): 8 µg/mL (≈ 18.9 µM); MIC (Haemophilus influenzae; H. influenzae MMX 5458): 16 µg/mL (≈ 37.7 µM); MIC (Haemophilus influenzae; H. influenzae MMX 5461): 8 µg/mL (≈ 18.9 µM); MIC (Haemophilus influenzae; H. influenzae MMX 5469): 4 µg/mL (≈ 9.43 µM); MIC (Haemophilus influenzae; H. influenzae MMX 5494): 0.5 µg/mL (≈ 1.18 µM); MIC (Haemophilus influenzae; H. influenzae MMX 5495): 2 µg/mL (≈ 4.71 µM); MIC (Haemophilus influenzae; H. influenzae MMX 5499): 1 µg/mL (≈ 2.36 µM)
C1C[S][Bi]([S]CC[S][Bi]2[S]CC[S]2)[S]1 [Sample 3]	0.59 μm	1.9 μm	4.5 μm	2.3 μm	0.59 μm	1.9 μm	4.5 μm	2.3 μm	–
C1C[S][Bi]([S]CC[S][Bi]2[S]CC[S]2)[S]1 [Sample 8]	0.36 μm	1.0 μm	1.8 μm	1.0 μm	0.36 μm	1.0 μm	1.8 μm	1.0 μm	–
C1C[S][Bi]([S]CC[S][Bi]2[S]CC[S]2)[S]1 [Sample 5]	0.33 μm	0.72 μm	1.6 μm	0.86 μm	0.33 μm	0.72 μm	1.6 μm	0.86 μm	–
C1C[S][Bi]([S]CC[S][Bi]2[S]CC[S]2)[S]1 [Sample 10]	0.36 μm	0.88 μm	1.7 μm	0.97 μm	0.36 μm	0.88 μm	1.7 μm	0.97 μm	–
C1C[S][Bi]([S]CC[S][Bi]2[S]CC[S]2)[S]1 [Sample 9]	0.67 μm	1.0 μm	1.9 μm	1.1 μm	0.67 μm	1.0 μm	1.9 μm	1.1 μm	–
C1C[S][Bi]([S]CC[S][Bi]2[S]CC[S]2)[S]1 [BisEBT]	–	–	–	–	–	–	–	–	MIC2 (Candida krusei; C. krusei ATCC 6258, MICA-I): 0.5 µg/mL; MIC0 (Candida krusei; C. krusei ATCC 6258, MICA-I): 1 µg/mL; MIC2 (Candida krusei; [3]): 0.5 µg/mL; MIC0 (Candida krusei; [3]): 1 µg/mL; MIC2 (Candida krusei; [4]): 0.25 µg/mL; MIC0 (Candida krusei; [4]): 0.5 µg/mL; MIC2 (Candida krusei; [5]): 0.5 µg/mL; MIC0 (Candida krusei; [5]): 1 µg/mL; MIC2 (Candida krusei; [6]): 0.5 µg/mL; MIC0 (Candida krusei; [6]): 1 µg/mL; MIC2 (Candida krusei; [7]): 0.5 µg/mL; MIC0 (Candida krusei; [7]): 1 µg/mL; MIC2 (Candida krusei; C. krusei MMX 7153, MICA-R): 0.5 µg/mL; MIC0 (Candida krusei; C. krusei MMX 7153, MICA-R): 1 µg/mL; MIC2 (Candida krusei; [8]): 0.5 µg/mL; MIC0 (Candida krusei; [8]): 1 µg/mL; MIC2 (Candida krusei; [9]): 0.5 µg/mL; MIC0 (Candida krusei; [9]): 1 µg/mL; MIC2 (Candida krusei; [10]): 0.5 µg/mL; MIC0 (Candida krusei; [10]): 1 µg/mL
C1C[S][Bi]([S]CC[S][Bi]2[S]CC[S]2)[S]1 [Sample 15]	0.32 μm	0.72 μm	1.6 μm	0.86 μm	0.32 μm	0.72 μm	1.6 μm	0.86 μm	–
C1C[S][Bi]([S]CC[S][Bi]2[S]CC[S]2)[S]1 [Sample 2]	0.58 μm	1.7 μm	3.9 μm	2.0 μm	0.58 μm	1.7 μm	3.9 μm	2.0 μm	–
C1C[S][Bi]([S]CC[S][Bi]2[S]CC[S]2)[S]1 [Sample 11]	0.38 μm	1.2 μm	2.4 μm	1.4 μm	0.38 μm	1.2 μm	2.4 μm	1.4 μm	–
C1C[S][Bi]([S]CC[S][Bi]2[S]CC[S]2)[S]1 [Sample 12]	0.37 μm	1.2 μm	2.4 μm	1.3 μm	0.37 μm	1.2 μm	2.4 μm	1.3 μm	–
